Data: patent US20190145962A1, “PEPTIDE FOR […] OF AMYLOSPHEROIDS (ASPD), AND […] SCREENING METHOD” (TAO HEALTH LIFE PHARMA CO., LTD., priority 2016, published 2019)

Tests used:
[1] = system: binding of ASPD to neurons (synthetic ASPD, primary cultured rat hippocampal neurons); test: Evaluation of ASPD-inhibitory peptides: inhibition of binding of ASPD to cultured neurons (immunofluorescence imaging, titer); type: cell-based; details: for ASPD-binding inhibitory ability (titer) compared with known ASPD neutralizing peptide 01 (HFNW): qualitative comparison with peptide 01, FIG. 3 and FIG. 4; for effect of inhibiting binding of ASPD to neurons: qualitative, evaluation of section 1
Experimental: Evaluation of peptides that inhibits binding of ASPD to neurons was performed by the following method.
Step 1: Adding a liquid mixture containing peptide and ASPD, which have been mixed together and then incubated, to cultured mature neurons.
Step 2: Degenerating (immobilizing) the neurons.
Step 3: Immunostaining the neurons and the ASPD, respectively, to perform imaging.
Step 4: Analyzing the image to quantify the ASPD bound to the neurons.
Step 5: Evaluating the peptides using the amount of the ASPD bound and/or an analytical value obtained therefrom.
Steps 1 to 3 were performed as follows:
A liquid mixture of peptide and synthetic ASPD was incubated at 4° C. for 15 minutes to pretreat the ASPD and this liquid mixture was added to primary cultured rat hippocampal neurons cultured in a 96-well plate.
After incubation at 37° C. for 15 minutes in a CO2 incubator, the wells were washed with PBS. Then, 2% paraformaldehyde (50 μl/well) was added thereto for immobilization performed for 20 minutes at 37° C. and further 4% paraformaldehyde (50 μl/well) was added thereto for immobilization performed for 20 minutes at 37° C. After washing and blocking, a primary antibody solution containing anti-ASPD antibody (mASD3) and anti-MAP2 antibody (trade name: sc-20172, manufactured by SANTACRUZ) was added, which then was left overnight. After washing, a secondary antibody solution containing Alexa Fluoro (trademark) 568 anti-mouse antibody (trade name: A11031, manufactured by life technologies), Alexa Fluoro (trademark) 488 anti-rabbit antibody (trade name: A11034, manufactured by life technologies), and DAPI (trade name: D523, manufactured by Dojindo) was added and then fluorescence microscopic observation was performed.
Subsequently, steps 4 to 5 were performed as follows: From the microscopic observation data, a calibration curve as shown in FIG. 2 was drawn, an approximate curve was created within a range where linearity was maintained, and then ED50 was calculated. Using, as an indicator, “titer” that is defined by the ratio of ED50 of the ASPD treated with peptide to ED50 of the ASPD alone, the ASPD-binding inhibitory ability of peptide was evaluated.
Titer=ED50[ASPD+Peptide]/ED50[ASPD]

[2] = target: T1, Synthetic ASPD (Homo sapiens, UniProt P05067); test: Surface plasmon resonance (SPR), synthetic ASPD solid-phased on a chip, peptide as analyte; type: binding; details: class symbols, key not given; the dissociation constant (KD) was determined but is not given
T1 construct: can be produced by slowly rotating a liquid containing Aß
Experimental: Synthetic ASPD were solid-phased on a chip and each peptide shown in Table 3 below was allowed to flow as an analyte. Then the dissociation constant (KD) was determined by surface plasmon resonance (SPR).

T1 sequence (P05067 672-713 limits assumed): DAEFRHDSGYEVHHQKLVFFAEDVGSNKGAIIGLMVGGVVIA

Substance | ASPD-binding inhibitory ability (titer) compared with known ASPD neutralizing peptide 01 (HFNW) [1] | effect of inhibiting binding of ASPD to neurons [1] | Results of SPR (Ability to Bind to ASPD) [2]
HANW [Peptide 10] | comparable to that of known ASPD neutralizing peptide 01 (HFNW) |  | 
HFDW [Peptide 18] |  | showed the effect of inhibiting binding of ASPD to neurons | 
HFKW [Peptide 22] | superior |  | 
HFNW [Peptide 01, known ASPD neutralizing peptide, reference compound] |  | showed the effect of inhibiting binding of ASPD to neurons | 
HFRW [Peptide 16] | superior |  | 
HFWW [Peptide 15] |  | showed the effect of inhibiting binding of ASPD to neurons | 
HHNW [Peptide 05] | comparable to that of known ASPD neutralizing peptide 01 (HFNW) | showed the effect of inhibiting binding of ASPD to neurons | 
HNNW [reference compound] |  | could not inhibit the binding of ASPD to neurons | No binding was found.
HPNW [reference compound] |  | could not inhibit the binding of ASPD to neurons | No binding was found.
HTNW [Peptide 09] | comparable to that of known ASPD neutralizing peptide 01 (HFNW) | showed the effect of inhibiting binding of ASPD to neurons | 
HVNW [Peptide 11] | comparable to that of known ASPD neutralizing peptide 01 (HFNW) |  | 
HYNW [Peptide 08] |  | showed the effect of inhibiting binding of ASPD to neurons | 
